Test systems include HCT-15 colon; HS 578T breast; MDA-MB-435; SK-MEL-5 melanoma; SK-OV-3 ovarian; SW-620 colon; UACC-62 melanoma; CCRF-CEM leukemia; HL-60(TB) leukemia; SR leukemia.
Experiment in all cases: DTP human tumour cell line panel, 48 h

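Exposure lasted 48 hours, with cells grown in 96-well plates and compounds tested at five concentrations. GI50 = concentration required for 50% inhibition of growth. TGI is the concentration that stops growth completely.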

On to `N#CC1=CNc2sccc2S1(=O)=O`, for which the TGI in the test on HCT-15 colon, in the test with HS 578T breast, with MDA-MB-435, with SK-MEL-5 melanoma, in the test on SK-OV-3 ovarian and in the test with SW-620 colon was above 100 µM each time. The TGI with UACC-62 melanoma is above 100 µM.

In the case of `N#Cc1c2c(c(N3CCOCC3)n3c1nc1ccccc13)CCCC2`, the TGI with CCRF-CEM leukemia was 8.48 µM; in the test with HCT-15 colon, 36.2 µM; in the test with HL-60(TB) leukemia it was 35.5 µM; in the test on HS 578T breast, above 100 µM; with MDA-MB-435 it was 39.7 µM; in the test with SK-MEL-5 melanoma it was 37 µM. The TGI with SK-OV-3 ovarian stood at 67.7 µM; in the test with SW-620 colon, 29 µM; in the test with UACC-62 melanoma, 55.5 µM.

Regarding `CC1=CC[C@@H]2CC[C@]3(C)[C@H](CC[C@@H]4[C@@]5(C)CCCNC(C)(C)[C@@H]5CC[C@]43C)[C@H]2[C@@H]1C`, the GI50 is 1700 nM in the test on HL-60(TB) leukemia; 1790 nM in the test with HS 578T breast; 1850 nM in the test with MDA-MB-435; 1700 nM in the test on SK-MEL-5 melanoma; 1890 nM in the test with SK-OV-3 ovarian; 1770 nM with UACC-62 melanoma. The TGI in the test on HL-60(TB) leukemia is 3.5 µM; in the test with HS 578T breast, 4.04 µM; in the test on MDA-MB-435, 3.28 µM; in the test on SK-MEL-5 melanoma, 3.08 µM; with SK-OV-3 ovarian it was 3.5 µM; in the test with UACC-62 melanoma it was 3.22 µM.

Consider `O=C(NCCO)c1ccc(Cl)cc1`, for which the TGI was 90.2 µM in the test on CCRF-CEM leukemia; above 100 µM in the test on HCT-15 colon; above 100 µM with HS 578T breast; above 100 µM with MDA-MB-435; above 100 µM with SK-MEL-5 melanoma; above 100 µM in the test on SR leukemia. Moreover, the TGI in the test on SW-620 colon and in the test on UACC-62 melanoma was above 100 µM each time.

Regarding `COC(=O)C1(C(=O)OC)N=C(C)OC1C(C)C` (stereo unspecified), the TGI in the test on CCRF-CEM leukemia, with HCT-15 colon, in the test with HL-60(TB) leukemia, with MDA-MB-435, with SK-MEL-5 melanoma and in the test on SK-OV-3 ovarian was above 100 µM each time. Besides, the total growth inhibition concentration (TGI) in the test on SR leukemia and with SW-620 colon was above 100 µM throughout.

For `COc1c/c(=C2/C=c3ccccc3=N2)[nH]/c1=C/c1[nH]c(C)cc1C`, the GI50 with CCRF-CEM leukemia was 31.3 nM; with HCT-15 colon, 36.3 nM; in the test on HL-60(TB) leukemia, 50 nM; in the test on SK-MEL-5 melanoma, 30.4 nM. For the same compound, the TGI in the test with CCRF-CEM leukemia was above 100 µM; with HCT-15 colon, above 100 µM; in the test on HL-60(TB) leukemia, 2.77 µM; with SK-MEL-5 melanoma, 0.0835 µM.

For the compound `O=C(N=Nc1ccccc1Br)NNc1ccccc1Br`, the TGI in the test on CCRF-CEM leukemia is above 100 µM; in the test on HCT-15 colon, above 100 µM; with HL-60(TB) leukemia, 86.7 µM; in the test on MDA-MB-435, above 100 µM; in the test with SK-MEL-5 melanoma it was above 100 µM; in the test with SR leukemia it was above 100 µM. Also, the TGI with SW-620 colon and in the test with UACC-62 melanoma was above 100 µM in each case.

As to `COc1cc(/C=C2/SC(c3ccccc3)N(c3cccc([N+](=O)[O-])c3)C2=O)cc(OC)c1OC` (stereo unspecified), the TGI with CCRF-CEM leukemia was above 100 µM; in the test with HCT-15 colon it was above 100 µM; with HL-60(TB) leukemia it was above 100 µM; in the test with HS 578T breast, above 100 µM; in the test on MDA-MB-435, 86.4 µM; in the test with SK-MEL-5 melanoma, above 100 µM. Also, the TGI in the test on SK-OV-3 ovarian, in the test on SW-620 colon and in the test with UACC-62 melanoma was above 100 µM in each case.

With `COc1ccc(-c2c(C#N)c(-c3ccccc3)n(NS(=O)(=O)c3ccccc3)c(=O)c2C#N)cc1`, the TGI in the test on CCRF-CEM leukemia, in the test with HCT-15 colon, with HL-60(TB) leukemia, with HS 578T breast, in the test with MDA-MB-435 and in the test with SK-MEL-5 melanoma was above 100 µM in each case. The TGI in the test with SK-OV-3 ovarian, with SW-620 colon and in the test on UACC-62 melanoma was above 100 µM in each case.

Regarding `COC(=O)C(COC(=O)/C=C/c1ccc(OC(C)=O)c(OC(C)=O)c1)OC(=O)/C=C/c1ccc(OC(C)=O)c(OC(C)=O)c1` (stereo unspecified), the TGI in the test with CCRF-CEM leukemia is 50.6 µM; with HCT-15 colon, above 100 µM; in the test with HS 578T breast, above 100 µM; in the test on MDA-MB-435, 23.9 µM; in the test on SK-MEL-5 melanoma it was 28.3 µM; in the test on SR leukemia it was 11.1 µM. In addition, the TGI with SW-620 colon came out at 23.5 µM; in the test with UACC-62 melanoma, 30.9 µM.

Regarding `CC[N+](CC)=c1ccc2nc3c(cc(N)c4ccccc43)oc-2c1`, the 50% growth inhibitory concentration (GI50) in the test on CCRF-CEM leukemia is 183 nM; in the test on HL-60(TB) leukemia, 134 nM; with SK-MEL-5 melanoma, 125 nM; in the test with SK-OV-3 ovarian, 1370 nM. Further, the TGI was found to be 0.326 µM with HL-60(TB) leukemia, 0.27 µM in the test on SK-MEL-5 melanoma and 2.7 µM in the test on SK-OV-3 ovarian.

Take `O=C1OS2(OCc3cccc4cccc2c34)c2ccccc21` (stereo unspecified): the TGI with CCRF-CEM leukemia, in the test on HCT-15 colon, with HL-60(TB) leukemia, with MDA-MB-435, in the test with SK-MEL-5 melanoma and in the test on SK-OV-3 ovarian was above 100 µM in each case. For the same compound, the TGI in the test with SR leukemia, in the test on SW-620 colon and with UACC-62 melanoma was above 100 µM throughout.

On to `OCCN=C1Nc2ccc(Cl)cc2C(=S)N2CSC[C@@H]12`, for which the TGI in the test on HCT-15 colon, in the test on MDA-MB-435, in the test on SK-MEL-5 melanoma, with SK-OV-3 ovarian, in the test with SR leukemia and with SW-620 colon was above 100 µM in each case. This compound also had a TGI in the test on UACC-62 melanoma above 100 µM.

As for `CCOC(=O)c1sc2c(c1OC(=O)c1ccccc1)c(=O)n(-c1ccccc1)c(=S)n2-c1ccccc1`, the TGI with CCRF-CEM leukemia was above 100 µM; in the test on HCT-15 colon, above 100 µM; in the test on HL-60(TB) leukemia, above 100 µM; with HS 578T breast, 75.6 µM; with MDA-MB-435, 51.7 µM; in the test on SK-MEL-5 melanoma it was 49.7 µM. For the same compound, the values for the TGI in the test on SK-OV-3 ovarian, in the test with SW-620 colon and in the test with UACC-62 melanoma were above 100 µM, above 100 µM and 52.3 µM, respectively.

As to `NC(=O)COc1ccccc1`, the total growth inhibition concentration (TGI) in the test on CCRF-CEM leukemia, in the test with HCT-15 colon, in the test on HL-60(TB) leukemia, in the test with SK-MEL-5 melanoma, with SK-OV-3 ovarian and with SR leukemia was above 100 µM throughout. For the same compound, the TGI in the test with SW-620 colon and with UACC-62 melanoma was above 100 µM each time.

Usually TGI stands for the concentration giving total growth inhibition. Higher therefore signals lower sensitivity of the cells. By GI50 is commonly meant the concentration giving 50% growth inhibition.

(Values after PubChem BioAssay (NCI).)
